Legend:
[1] = system: HBSO neurons; assay: Multi-electrode array (MEA) analysis of dissociated day 60 HBSO neurons; format: cell-based, human; conditions: 10 μM, applied immediately before recording
Procedure: The functionality of HBSO neurons, particularly their responses to hypercapnia, is further assessed using multi-electrode array (MEA) analyses. Briefly, Day 60 HBSOs arc dissociated with Papain Dissociation System (Worthington, LK003150) following the manufacturer's protocol. In brief, the HBSOs are digested with the papain solution in 37° C. incubator for 30 min with continuous shaking at 90 r.p.m. and then triturated with P1000 pipette. The triturated HBSOs are further digested in 37° C. incubator for an additional 10 min and then filtered through 40 μm cell strainer (Corning, 352340) to remove undigested cell debris. The dissociated cells are collected by centrifuging at 300×g for 5 min at room temperature. The cells are then resuspended with DNase/ovomucoid inhibitor solution to stop the digestion. […] MEA recordings are measured at 37° C. with 5-8% CO2 in a Maestro Edge MEA System (Axion Biosystems) to detect spontaneous firing of spikes. The MEA plate is pre-equilibrated in the MEA system for at least 5 min before measurement and each treatment is recorded for 5-10 min to calculate the mean spike firing rate. […] The MEA recordings are analyzed using the Neural Module of AxIS Navigator 1.5 software and the Neural Metric Tool software (Axion Biosystems). […]

[2] = system: HBSOs; assay: HBSO differentiation with WNT antagonist added on days 3-6 (growth, RT-qPCR of patterning markers at day 20); format: cell-based, human
Procedure: To generate HSBOs, hPSCs are dissociated into single cell suspension by treating with 0.5 mM EDTA solution in DPBS and then Accutase as described above. 2.7×10^6 cells are seeded to a well of AggreWell800 24-well plate (STEMCELL Technologies, 34815) which contained 300 microwells per well (i.e. 9,000 cells per microwell). The cells are kept in mTeSR1 with 10 μM Y-27632 overnight in 37° C. incubator for the spheroid formation and they are marked as day 0 at this stage. At day 1, the spheroids from one well of Aggre Well800 are split into 3 wells of 6-well ultra-low-attachment plate containing Neural Induction Medium (DMEM/F12, 1% N2 supplement (v/v), 1% GlutaMAX supplement (v/v), 1% MEM-NEAA (v/v) and 1 μg ml^−1 Heparin) supplemented with BMP inhibitor LDN-193189 (1 μM) and TGF-β inhibitor SB431542 (10 μM). […]
Total RNA from HCOs and HBSOs are extracted by RNeasy Mini Kit (Qiagen) and the RNA concentrations are determined by Nanodrop 1000 Spectrophotometer (Thermo Fisher Scientific). […] Fluorescence is measured by ViiA 7 Real-Time PCR System (Thermo Fisher Scientific) at the end of each cycle. […]

Compound: NCCc1c[nH]c2ccc(O)cc12 [5-HT, serotonin]
- firing of HBSO neurons ([1]; FIG. 1J): capable of enhancing the firing

Compound: O=C(Nc1cccc2cccnc12)c1ccc(N2C(=O)[C@@H]3[C@H](C2=O)[C@@H]2C=C[C@H]3C2)cc1 [IWR1-endo]
- favoring the dB2 domain formation (PHOX2B expression) ([2]; 1 μM or 10 μM, day 20 RT-qPCR, FIG. 1D): does not provide additional benefits
- growth of the HBSOs ([2]; 10 μM): inhibited the growth

Compound: CC1CCN(CC[C@H]2CCCN2S(=O)(=O)c2cccc(O)c2)CC1 [SB269970]
- hypercapnia responses of HBSO neurons ([1]; FIG. 1K): counteraction of these responses

Reference: patent US20240425812A1, “HYPOVENTILATION PHYSICAL MODELS AND APPLICATIONS THEREOF” (The University of Hong Kong, priority 2023, published 2024)
